Data on two compounds can be found in BindingDB's records for doi:10.1021/cb8001039 (National Cancer Institute-Bethesda, 2008).

Holding throughout (assay): FRET-Based RNase H Assay
Holding throughout (conditions): pH 8; 20 °C

Experiment [1] addresses T1, Gag-Pol polyprotein [613-1167,R896S,E946D,S1117V]/[618-1043,R896S,E946D] (Human immunodeficiency virus 2, UniProt P04584, E946D/R896S/S1117V).
T1 construct: 613-1167; 618-1043
As to the method: (§1) RNaseH assays were performed using an 18-nucleotide 3-fluorescein-labeled RNA annealed to a complementary 18-nucleotide 5-dabcyl conjugated DNA. The increase in fluorescence as a result of RNase H hydrolysis was monitored with a Spectramax Gemini EM fluorescence spectrometer. Data were analyzed using the instrument manufacturer SoftMax pro software. To determine IC50 values, the slope of the curve representing the time dependent increase in fluorescence was determined at 10 min, when initial rate conditions are met and substrate depletion is not significant. The slope values were plotted against the logarithm of the inhibitor concentrations, and IC50 values were determined using SigmaPlot software.

The target of experiment [2] is T2, Gag-Pol polyprotein [600-1029,C879S]/[600-1159,C879S] (Human immunodeficiency virus 1, UniProt P03366, C879S).
T2 construct: 600-1029; 600-1159
As to the method: as §1

The next experiment deals with T3, Ribonuclease HI (Escherichia coli (strain K12), UniProt P0A7Y4).
T3 sequence (P0A7Y4 whole entry): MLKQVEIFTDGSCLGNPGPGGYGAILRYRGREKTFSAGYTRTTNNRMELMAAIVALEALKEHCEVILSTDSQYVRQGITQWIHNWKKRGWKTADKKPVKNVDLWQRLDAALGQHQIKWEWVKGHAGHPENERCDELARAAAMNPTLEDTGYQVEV
How it is done:
as §1

For another experiment, the target named is T4, Ribonuclease H1 (Homo sapiens, UniProt O60930).
T4 sequence (O60930 whole entry): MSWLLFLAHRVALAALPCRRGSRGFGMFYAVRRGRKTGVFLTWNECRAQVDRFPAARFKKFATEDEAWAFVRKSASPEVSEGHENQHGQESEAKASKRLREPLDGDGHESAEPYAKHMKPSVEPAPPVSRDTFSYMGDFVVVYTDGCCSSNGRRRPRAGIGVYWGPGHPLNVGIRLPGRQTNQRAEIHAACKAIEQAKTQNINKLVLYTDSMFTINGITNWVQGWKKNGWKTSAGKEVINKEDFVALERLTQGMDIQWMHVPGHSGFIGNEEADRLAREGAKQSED
How it is done: as §1

T1 sequence (P04584 613-1167, looked up, stated change not applied): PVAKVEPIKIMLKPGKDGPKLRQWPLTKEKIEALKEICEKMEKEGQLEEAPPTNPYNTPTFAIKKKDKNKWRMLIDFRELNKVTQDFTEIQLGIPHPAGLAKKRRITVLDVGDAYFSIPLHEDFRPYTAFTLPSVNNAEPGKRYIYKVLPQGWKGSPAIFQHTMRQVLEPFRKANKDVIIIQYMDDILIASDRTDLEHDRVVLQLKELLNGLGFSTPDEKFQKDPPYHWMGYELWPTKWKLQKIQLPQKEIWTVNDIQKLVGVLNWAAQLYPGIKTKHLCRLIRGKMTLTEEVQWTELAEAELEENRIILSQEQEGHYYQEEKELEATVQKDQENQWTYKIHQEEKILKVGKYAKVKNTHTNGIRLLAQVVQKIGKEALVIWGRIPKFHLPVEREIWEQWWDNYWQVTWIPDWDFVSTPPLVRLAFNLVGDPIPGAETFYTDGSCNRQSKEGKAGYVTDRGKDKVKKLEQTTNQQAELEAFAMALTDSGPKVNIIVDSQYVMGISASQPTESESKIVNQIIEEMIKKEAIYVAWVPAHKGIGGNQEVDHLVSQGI
T1 sequence (P04584 618-1043, looked up, stated change not applied): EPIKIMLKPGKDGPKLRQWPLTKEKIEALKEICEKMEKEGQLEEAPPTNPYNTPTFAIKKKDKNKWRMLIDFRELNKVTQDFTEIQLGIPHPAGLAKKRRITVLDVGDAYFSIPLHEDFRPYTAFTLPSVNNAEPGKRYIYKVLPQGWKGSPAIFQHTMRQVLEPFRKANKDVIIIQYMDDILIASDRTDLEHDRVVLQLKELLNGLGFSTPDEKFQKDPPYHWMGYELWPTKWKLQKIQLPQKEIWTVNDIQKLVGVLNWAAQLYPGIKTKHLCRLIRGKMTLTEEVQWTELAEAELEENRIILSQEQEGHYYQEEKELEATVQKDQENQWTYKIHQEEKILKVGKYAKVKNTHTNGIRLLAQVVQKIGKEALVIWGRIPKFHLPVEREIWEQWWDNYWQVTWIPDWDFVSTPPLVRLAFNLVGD

For `NC(=O)c1c(N)sc2c1CCCCC2` [SMR000066289], the IC50 in experiment [1] amounted to 2.5 µM; in experiment [2], 2 µM; against Ribonuclease HI it was 100 µM; against Ribonuclease H1 it was 10.6 µM.
On to `Cc1sc(NC(=O)c2ccco2)c(C(N)=O)c1C` [vinylogous urea, NSC727448], for which the IC50 in experiment [1] was determined as 5 µM; in experiment [2], 3.2 µM; against Ribonuclease HI it was 73 µM; at Ribonuclease H1 it was 29 µM.
